Laboratory results taken from PubChem BioAssay AID248 (DTP/NCI, 2004).
Inconclusive results and toxic doses are left out.

Test system: L1210 leukemia ip in BDF1 mice, survival T/C
Assay: NCI In Vivo Anticancer Drug Screen. Data for tumor model L1210 Leukemia (intraperitoneal) in B6D2F1 (BDF1) mice
Conditions: endpoint: mean survival time, higher = longer survival
Summary of the method: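 Mice bearing the transplanted tumor received compound or vehicle. Survival of the treated group was divided by that of the vehicle-treated control group to give the ratio.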

[1] = dose: 100.0 mg/kg/injection, schedule: Q01DX009 (ip), vehicle: saline
[2] = dose: 100.0 mg/kg/injection, schedule: Q04DX003 (ip), vehicle: saline
[3] = dose: 100.0 mg/kg/injection, schedule: Q01DX009 (ip), vehicle: saline with Tween-80
[4] = dose: 200.0 mg/kg/injection, schedule: Q01DX009 (ip), vehicle: saline with Tween-80
[5] = dose: 100.0 mg/kg/injection, schedule: Q01DX009 (ip), vehicle: Klucel (hydroxypropylcellulose) (HPC)
[6] = dose: 200.0 mg/kg/injection, schedule: Q01DX009 (ip), vehicle: Klucel (hydroxypropylcellulose) (HPC)
[7] = dose: 400.0 mg/kg/injection, schedule: Q01DX009 (ip), vehicle: Klucel (hydroxypropylcellulose) (HPC)
[8] = dose: 100.0 mg/kg/injection, schedule: Q04DX003 (ip), vehicle: Klucel (hydroxypropylcellulose) (HPC)
[9] = dose: 200.0 mg/kg/injection, schedule: Q04DX003 (ip), vehicle: Klucel (hydroxypropylcellulose) (HPC)
[10] = dose: 100.0 mg/kg/injection, schedule: Q01DX001 (ip), vehicle: saline
[11] = dose: 200.0 mg/kg/injection, schedule: Q01DX001 (ip), vehicle: saline
[12] = dose: 100.0 mg/kg/injection, schedule: Q04DX002 (ip), vehicle: saline
[13] = dose: 200.0 mg/kg/injection, schedule: Q04DX002 (ip), vehicle: saline
[14] = dose: 400.0 mg/kg/injection, schedule: Q04DX002 (ip), vehicle: saline
[15] = dose: 100.0 mg/kg/injection, schedule: Q04DX002 (ip), vehicle: saline with Tween-80
[16] = dose: 200.0 mg/kg/injection, schedule: Q04DX002 (ip), vehicle: saline with Tween-80
[17] = dose: 400.0 mg/kg/injection, schedule: Q04DX003 (ip), vehicle: Klucel (hydroxypropylcellulose) (HPC)

CN(C)[C@@H]1C(=O)C(C(=O)NCNCCCC(=O)O)=C(O)[C@@]2(O)C(=O)C3=C(O)c4c(O)cccc4[C@@](C)(O)[C@H]3C[C@@H]12
T/C [1]: 103 % of control | T/C [2]: 105 % of control | T/C (dose: 200.0 mg/kg/injection, schedule: Q01DX009 (ip), vehicle: saline): 102 % of control | T/C (dose: 200.0 mg/kg/injection, schedule: Q04DX003 (ip), vehicle: saline): 96 % of control | T/C (dose: 400.0 mg/kg/injection, schedule: Q01DX009 (ip), vehicle: saline): 94 % of control | T/C (dose: 400.0 mg/kg/injection, schedule: Q04DX003 (ip), vehicle: saline): 96 % of control

COC(=O)c1ccc(SSc2ccc(C(=O)OC)cc2[N+](=O)[O-])c([N+](=O)[O-])c1
T/C [3]: 103 % of control | T/C [4]: 102 % of control | T/C (dose: 400.0 mg/kg/injection, schedule: Q01DX009 (ip), vehicle: saline with Tween-80): 92 % of control

CC(C)OC(=S)SCC(=O)c1ccc([N+](=O)[O-])cc1
T/C (dose: 100.0 mg/kg/injection, schedule: Q04DX002 (ip), vehicle: Klucel (hydroxypropylcellulose) (HPC)): 112 % of control | T/C (dose: 200.0 mg/kg/injection, schedule: Q04DX002 (ip), vehicle: Klucel (hydroxypropylcellulose) (HPC)): 102 % of control | T/C (dose: 400.0 mg/kg/injection, schedule: Q04DX002 (ip), vehicle: Klucel (hydroxypropylcellulose) (HPC)): 105 % of control

COc1ccc(OC)c(CCl)c1
T/C (dose: 75.0 mg/kg/injection, schedule: Q01DX009 (ip), vehicle: Klucel (hydroxypropylcellulose) (HPC)): 97 % of control | T/C (dose: 150.0 mg/kg/injection, schedule: Q01DX009 (ip), vehicle: Klucel (hydroxypropylcellulose) (HPC)): 103 % of control | T/C (dose: 300.0 mg/kg/injection, schedule: Q01DX009 (ip), vehicle: Klucel (hydroxypropylcellulose) (HPC)): 91 % of control

CCN(CC)C1=C(Cl)C(=O)C(N(CC)CC)=C(Cl)C1=O
T/C (dose: 25.0 mg/kg/injection, schedule: Q04DX002 (ip), vehicle: gum acacia): 95 % of control | T/C (dose: 50.0 mg/kg/injection, schedule: Q04DX002 (ip), vehicle: gum acacia): 95 % of control

COC(=O)Cc1ccc(Br)cc1
T/C (dose: 50.0 mg/kg/injection, schedule: Q01DX009 (ip), vehicle: saline with Tween-80): 106 % of control | T/C [3]: 98 % of control | T/C [4]: 88 % of control

CCc1ccc(NS(=O)(=O)c2ccc(OC)cc2)cc1
T/C [5]: 102 % of control | T/C [6]: 100 % of control | T/C [7]: 109 % of control

NCCCCS(=O)(=O)Nc1ccc(Nc2c3ccccc3nc3cc([N+](=O)[O-])ccc23)cc1
T/C (dose: 2.1 mg/kg/injection, schedule: Q01DX009 (ip), vehicle: saline): 117 % of control | T/C (dose: 3.1 mg/kg/injection, schedule: Q01DX009 (ip), vehicle: saline): 121 % of control | T/C (dose: 16.0 mg/kg/injection, schedule: Q01DX009 (ip), vehicle: saline): 123 % of control | T/C (dose: 25.0 mg/kg/injection, schedule: Q01DX009 (ip), vehicle: saline): 158 % of control | T/C (dose: 25.0 mg/kg/injection, schedule: Q01DX009 (sc), vehicle: saline): 111 % of control | T/C (dose: 50.0 mg/kg/injection, schedule: Q01DX009 (ip), vehicle: saline): 228 % of control | T/C (dose: 50.0 mg/kg/injection, schedule: Q01DX009 (sc), vehicle: saline): 118 % of control | T/C [1]: 266 % of control | T/C (dose: 100.0 mg/kg/injection, schedule: Q01DX009 (sc), vehicle: saline): 175 % of control | T/C (dose: 200.0 mg/kg/injection, schedule: Q01DX009 (sc), vehicle: saline): 163 % of control

Clc1nc2ccccc2c2ccccc12
T/C (dose: 43.0 mg/kg/injection, schedule: Q01DX001 (ip), vehicle: carboxymethylcellulose (CMC)): 96 % of control | T/C (dose: 85.0 mg/kg/injection, schedule: Q01DX001 (ip), vehicle: carboxymethylcellulose (CMC)): 92 % of control | T/C (dose: 170.0 mg/kg/injection, schedule: Q01DX001 (ip), vehicle: carboxymethylcellulose (CMC)): 92 % of control

CCC(C)C(C#N)(CCN(CC)CC)c1ccccc1 (stereo not given)
T/C (dose: 50.0 mg/kg/injection, schedule: Q01DX009 (ip), vehicle: Klucel (hydroxypropylcellulose) (HPC)): 104 % of control | T/C [5]: 100 % of control | T/C [8]: 111 % of control | T/C [9]: 103 % of control

CC1CCC(C(O)(C(=O)O)C2CCCCC2)CC1 (stereo not given)
T/C (dose: 75.0 mg/kg/injection, schedule: Q01DX001 (ip), vehicle: other): 104 % of control | T/C (dose: 150.0 mg/kg/injection, schedule: Q01DX001 (ip), vehicle: other): 101 % of control

O=C(C[n+]1ccc2ccccc2c1)c1ccc(-c2ccccc2)cc1
T/C (dose: 25.0 mg/kg/injection, schedule: Q04DX003 (ip), vehicle: saline): 98 % of control | T/C (dose: 50.0 mg/kg/injection, schedule: Q04DX003 (ip), vehicle: saline): 105 % of control | T/C [10]: 94 % of control | T/C [2]: 100 % of control | T/C [11]: 101 % of control

Cc1ccc(NNP(Cl)(c2ccccc2)(c2ccccc2)c2ccccc2)cc1
T/C (dose: 50.0 mg/kg/injection, schedule: Q01DX001 (ip), vehicle: saline): 92 % of control | T/C [10]: 97 % of control

[O-][n+]1ccccc1CCO
T/C [12]: 98 % of control | T/C [13]: 106 % of control | T/C [14]: 92 % of control

O=C(O)C(CCO)c1ccccc1 (stereo not given)
T/C [15]: 95 % of control | T/C [16]: 100 % of control | T/C (dose: 400.0 mg/kg/injection, schedule: Q04DX002 (ip), vehicle: saline with Tween-80): 95 % of control

Cc1ccc(C(=O)C(O)c2ccc(C)cc2)cc1 (stereo not given)
T/C [5]: 98 % of control | T/C [6]: 101 % of control | T/C [7]: 98 % of control

NC(=S)NNC(=O)Nc1ccc(F)c(Cl)c1
T/C (dose: 12.5 mg/kg/injection, schedule: Q01DX009 (ip), vehicle: other): 94 % of control | T/C (dose: 25.0 mg/kg/injection, schedule: Q01DX009 (ip), vehicle: other): 93 % of control | T/C (dose: 50.0 mg/kg/injection, schedule: Q01DX009 (ip), vehicle: other): 96 % of control

O=S(=O)(OCCCC1CC2C=CC1C2)c1ccc(Br)cc1 (stereo not given)
T/C (dose: 75.0 mg/kg/injection, schedule: Q01DX001 (ip), vehicle: carboxymethylcellulose (CMC)): 104 % of control | T/C (dose: 75.0 mg/kg/injection, schedule: Q04DX003 (ip), vehicle: carboxymethylcellulose (CMC)): 89 % of control | T/C (dose: 150.0 mg/kg/injection, schedule: Q01DX001 (ip), vehicle: carboxymethylcellulose (CMC)): 91 % of control | T/C (dose: 150.0 mg/kg/injection, schedule: Q04DX003 (ip), vehicle: carboxymethylcellulose (CMC)): 100 % of control | T/C (dose: 300.0 mg/kg/injection, schedule: Q04DX003 (ip), vehicle: carboxymethylcellulose (CMC)): 98 % of control

CC(N=c1nc(N)ccn1C1OC(CO)C(O)C1O)C(=O)O (stereo not given)
T/C (dose: 200.0 mg/kg/injection, schedule: Q01DX005 (ip), vehicle: saline): 120 % of control

N#CCNC(=O)c1ccc(I)cc1
T/C (dose: 100.0 mg/kg/injection, schedule: Q01DX001 (ip), vehicle: Klucel (hydroxypropylcellulose) (HPC)): 111 % of control | T/C (dose: 200.0 mg/kg/injection, schedule: Q01DX001 (ip), vehicle: Klucel (hydroxypropylcellulose) (HPC)): 95 % of control | T/C (dose: 400.0 mg/kg/injection, schedule: Q01DX001 (ip), vehicle: Klucel (hydroxypropylcellulose) (HPC)): 106 % of control

Cc1ccc(N=Nc2ccc(C)cc2NC(=O)Nc2cc([N+](=O)[O-])ccc2F)cc1
T/C [12]: 93 % of control | T/C [13]: 108 % of control | T/C [14]: 90 % of control

O=[N+]([O-])c1ccc(N/N=C/C(O)C(O)C(O)CO)cc1 (stereo not given)
T/C (dose: 50.0 mg/kg/injection, schedule: Q04DX002 (ip), vehicle: saline with Tween-80): 106 % of control | T/C [15]: 106 % of control | T/C [16]: 87 % of control

CC(=O)Oc1cc(-c2ccccc2)c2oc(C)nc2c1-c1ccccc1
T/C [8]: 101 % of control | T/C [9]: 103 % of control | T/C [17]: 93 % of control

O=c1ccc2c(-c3ccccc3O)c3ccc(O)cc3oc-2c1
T/C [8]: 93 % of control | T/C [9]: 94 % of control | T/C [17]: 92 % of control

Cc1n(-c2ccccc2)c2ccccc2[n+]1[O-]
T/C [10]: 101 % of control | T/C [11]: 101 % of control | T/C (dose: 400.0 mg/kg/injection, schedule: Q01DX001 (ip), vehicle: saline): 101 % of control
